The source of these data is patent US6632806B1, “Neurologically-active compounds” (The University of Sydney, priority 1997, dated 2003).

Test [1] has as its target GABAC receptors. To be noted: Woodward et al, 1993, cited from earlier work; for Kb: read-out: KB (antagonist); for Kd: Johnston, 1996b, read-out: KD (agonist).
Test [2] deals with human r1 receptors (GABAC receptors) (Homo sapiens, UniProt P24046). In words: Two-electrode voltage clamp recording of human r1 GABAC receptors expressed in Xenopus oocytes. Particulars: for EC50: r1 receptors in Xenopus oocytes, clamped at −60 mV; for IC50: IC50 (concentration that inhibits 50% of the response produced by 1 μM GABA), 1 μM GABA; for Mode of antagonism: Schild analysis; for Effect as agonist or antagonist at GABAC receptors: screened at 100 μM; for Activation of the receptor by compound alone / Effect on GABA response when co-applied with GABA (1 μM): FIG. 1.
Sequence of human r1 receptors (GABAC receptors) (P24046 22-479): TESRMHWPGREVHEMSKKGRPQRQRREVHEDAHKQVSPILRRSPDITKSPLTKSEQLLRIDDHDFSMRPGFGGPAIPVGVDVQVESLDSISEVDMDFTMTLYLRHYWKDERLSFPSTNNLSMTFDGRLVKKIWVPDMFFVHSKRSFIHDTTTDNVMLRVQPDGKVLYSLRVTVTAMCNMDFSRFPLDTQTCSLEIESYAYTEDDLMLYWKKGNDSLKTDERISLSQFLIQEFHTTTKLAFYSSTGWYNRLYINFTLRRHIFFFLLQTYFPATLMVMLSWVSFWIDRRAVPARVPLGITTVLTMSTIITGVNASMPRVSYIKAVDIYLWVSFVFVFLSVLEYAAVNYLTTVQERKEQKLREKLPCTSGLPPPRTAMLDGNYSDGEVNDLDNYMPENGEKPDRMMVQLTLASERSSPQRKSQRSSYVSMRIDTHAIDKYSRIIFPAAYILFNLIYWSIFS
Method: The plasmid was linearized with XbaI and cRNA made using the “Message Machine” kit from Ambion Inc. (Austin, Tex., USA). 50 ng of cRNA was injected into defolliculated Stage V Xenopus oocytes. Two to seven days later, receptor activity was measured by two-electrode voltage clamp recording, using a Geneclamp 500 amplifier (Axon Instruments Inc., Foster City, Calif., USA) and a MacLab 2e recorder (ADInstruments, Sydney, NSW, Australia). […] For receptor activation measurements, the indicated concentrations of agonist and antagonist were added to ND96.

Test [3] has as its system T1, GABAA.
T1 construct: Activity at GABAA; other: Woodward et al, 1993; GABAA Kb; other: Ragozzino et al (1996); other: PMPA; source not given, column fo
Particulars: Na-independent [3H]GABA binding (Johnston et al, 1978); read-out: GABAA receptor affinity, IC50; cited from earlier work.

Test [4] has as its system T1, GABAA. To be noted: [3H]muscimol binding (Froestl et al, 1995a; 1995b), cited from earlier work; for IC50: read-out: GABAA receptor affinity, IC50.
Test [5] relates to NMDA, benzodiazepine, quisqualate, kainate, muscarinic cholinergic, adrenergic, serotoninergic and histaminergic receptors. Particulars: 1 mM; cited from earlier work.
Test [6] has as its system GABAA. To be noted: cited from earlier work.
The target in test [7] is GABAB (Rattus norvegicus, UniProt Q9Z0U4). Also noted: from tissue; host or cells: rat cortical membranes / neocortical slices; values largely from the literature. To be noted: [3H]CGP27492 binding (Froestl et al; Bittiger et al; Olpe et al); read-out: GABAB receptor affinity, IC50; cited from earlier work.
Sequence of GABAB (Q9Z0U4 17-960 limits assumed): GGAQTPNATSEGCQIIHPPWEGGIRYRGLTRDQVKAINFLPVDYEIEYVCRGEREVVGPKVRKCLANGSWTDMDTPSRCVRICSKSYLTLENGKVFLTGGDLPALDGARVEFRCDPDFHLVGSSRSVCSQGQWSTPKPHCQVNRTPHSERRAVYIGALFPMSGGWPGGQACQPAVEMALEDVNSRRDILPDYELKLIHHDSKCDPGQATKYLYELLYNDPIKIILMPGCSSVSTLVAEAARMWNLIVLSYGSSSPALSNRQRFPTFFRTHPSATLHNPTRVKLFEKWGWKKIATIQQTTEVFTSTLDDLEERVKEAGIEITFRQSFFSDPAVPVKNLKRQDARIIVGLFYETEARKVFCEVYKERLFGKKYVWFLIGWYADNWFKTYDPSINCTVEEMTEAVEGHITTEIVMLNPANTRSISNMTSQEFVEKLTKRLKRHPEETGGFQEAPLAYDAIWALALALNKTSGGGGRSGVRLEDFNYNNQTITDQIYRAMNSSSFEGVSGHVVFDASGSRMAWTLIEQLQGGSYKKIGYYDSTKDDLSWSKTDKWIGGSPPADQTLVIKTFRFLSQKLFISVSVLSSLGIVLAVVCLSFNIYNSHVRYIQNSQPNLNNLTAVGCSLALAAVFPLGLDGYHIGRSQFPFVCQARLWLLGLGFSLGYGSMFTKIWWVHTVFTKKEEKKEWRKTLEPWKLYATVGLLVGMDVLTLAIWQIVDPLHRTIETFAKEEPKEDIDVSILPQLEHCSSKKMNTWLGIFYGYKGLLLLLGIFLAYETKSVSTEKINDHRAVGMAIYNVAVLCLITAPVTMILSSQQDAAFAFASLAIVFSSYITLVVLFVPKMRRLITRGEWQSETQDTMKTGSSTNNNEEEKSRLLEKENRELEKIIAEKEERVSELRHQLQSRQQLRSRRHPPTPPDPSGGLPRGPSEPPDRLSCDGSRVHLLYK
Sequence of GABAB (O88871 41-940 partner): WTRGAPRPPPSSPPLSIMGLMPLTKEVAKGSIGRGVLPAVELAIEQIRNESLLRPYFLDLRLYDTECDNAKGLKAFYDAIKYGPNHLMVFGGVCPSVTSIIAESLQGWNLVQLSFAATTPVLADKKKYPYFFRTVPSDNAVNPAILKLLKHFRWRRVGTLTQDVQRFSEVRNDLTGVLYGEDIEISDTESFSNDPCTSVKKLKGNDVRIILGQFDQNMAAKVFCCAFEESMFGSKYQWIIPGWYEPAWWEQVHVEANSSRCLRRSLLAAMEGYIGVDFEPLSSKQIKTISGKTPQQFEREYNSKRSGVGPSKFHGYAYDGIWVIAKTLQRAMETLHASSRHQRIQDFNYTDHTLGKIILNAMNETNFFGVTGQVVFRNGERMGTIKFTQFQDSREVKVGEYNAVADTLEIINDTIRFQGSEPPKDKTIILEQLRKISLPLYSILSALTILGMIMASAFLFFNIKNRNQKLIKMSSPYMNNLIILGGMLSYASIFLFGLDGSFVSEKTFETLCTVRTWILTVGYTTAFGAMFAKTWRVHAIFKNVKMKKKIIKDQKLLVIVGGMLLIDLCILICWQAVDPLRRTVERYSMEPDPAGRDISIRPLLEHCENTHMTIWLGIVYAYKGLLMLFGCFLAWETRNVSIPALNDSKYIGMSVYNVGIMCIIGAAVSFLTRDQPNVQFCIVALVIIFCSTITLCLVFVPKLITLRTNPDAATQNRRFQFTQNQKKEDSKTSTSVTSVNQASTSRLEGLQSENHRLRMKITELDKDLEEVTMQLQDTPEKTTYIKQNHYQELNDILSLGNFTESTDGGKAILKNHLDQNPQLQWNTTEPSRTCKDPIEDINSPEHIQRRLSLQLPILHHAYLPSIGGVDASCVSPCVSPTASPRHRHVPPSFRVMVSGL
Test [8] has as its target T2, GABAC (human r1) (Homo sapiens, UniProt P24046).
T2 construct: host or cells: Xenopus oocytes expressing human r1 mRNA
Particulars: data from Murata et al, 1996; cited from earlier work.

Values joined by “and” are separate entries in the source; they are usually repeats but may differ in a detail not shown here. Equal values may be shown once. Read-outs that look alike come from different tables or passages of the source. Marks after values point to notes of the source that are not given here. A value given as a limit tells only on which side of the number the result lay.

T2 sequence (P24046 22-479): as the sequence (P24046 22-479) above

Consider `NCCCP(=O)(O)O` [3-APA, 3-aminopropylphosphonic acid], for which the Kb in test [1] is 10 µM.
As usually defined, the Kd is a measure of binding affinity in units of concentration. As usually defined, the EC50 is the concentration that produces a half-maximal response. Usually IC50 stands for the midpoint of a concentration-inhibition curve. As to `NC/C=C\C(=O)O` [CACA, cis-4-aminocrotonic acid], in test [1], the Kd was 74 µM. For the same compound, in test [2], the “Activation of Cl− channel current by compound on its own” value (“Activation of Cl− channel current” for short) was “activated the Cl^− channel”, the “nH (Hill Coefficient)” value amounted to 2.2 ± 0.3 and the “Maximal dose current as % of the maximal GABA activated current” value came out at 75%. The EC50 in test [2] (EC50 (effective dose that activates 50% of the maximal current)) was 37.4 µM and 37 µM. Moreover, in test [3], the 50% inhibitory concentration (IC50) was 25 µM.
Consider `NCCC[PH](=O)O` [CGP27492, 3-aminopropylphosphinic acid], for which the Kb in test [1] was 1.8 µM. Also, in test [2], the “Activation of Cl− channel current” value is given as “did not activate any current on their own”, the Kb was found to be 3.2 ± 1 µM, the “Slope of Schild Plot” value was 0.99 and the “nH (Hill Coefficient)” value is 1.9 ± 0.2. Moreover, in test [2], 2.47 ± 0.04 µM corresponded to half-maximal inhibition (IC50) and the Mode of antagonism result is on record as “competitive antagonists”. Moreover, the “nH of GABA curve in the presence of antagonist” value (“nH of GABA curve” below) in test [2] ([Antagonist] 10 μM) was 2.3 ± 0.1. Further, the “nH of GABA curve” value in test [2] ([Antagonist] 30 μM) came out at 2.4 ± 0.3. In addition, the “nH of GABA curve” value in test [2] ([Antagonist] 100 μM) is on record as 2.5 ± 0.2. Besides, in test [4], the IC50 was 1.7 µM.
Consider `CP(=O)(O)CCCN` [CGP35024, (3-aminopropyl)methylphosphinic acid], for which, in test [1], the Kb was 0.8 µM. Also, in test [2], the “Activation of Cl− channel current” value was “did not activate any current on their own”, the Kb turned out to be 0.58 ± 0.14 µM, the “Slope of Schild Plot” value worked out at 1.14 and the “nH (Hill Coefficient)” value is reported as 1.8 ± 0.1. In test [2], the IC50 was 0.75 ± 0.07 µM and the Mode of antagonism entry was “competitive antagonists”. For the same compound, the “nH of GABA curve” value in test [2] ([Antagonist] 3 μM) is listed as 2.3 ± 0.1. Moreover, the “nH of GABA curve” value in test [2] ([Antagonist] 10 μM) is on record as 2.2 ± 0.2. Also, the “nH of GABA curve” value in test [2] ([Antagonist] 30 μM) was determined as 1.9 ± 0.2. Moreover, the “GABAA receptor affinity, IC50” value in test [4] was “inactive at 10^k”.
Consider `CCOC(OCC)P(=O)(O)CCCN` [CGP35348, 3-aminopropyl(diethoxymethyl)phosphinic acid], for which, in test [2], the “Effect as agonist or antagonist at GABAC receptors” value was “no effect as either agonists or antagonists”.
For `CCCCP(=O)(O)CCCN` [CGP36742, (3-aminopropyl)-n-butylphosphinic acid], the “Effect at other receptor types” value in test [5] is reported as “no effect”. Further, the IC50 in test [6] is 500 µM.
With `NC/C=C/[PH](=O)O` [CGP38593, [(E)-3-aminopropen-1-yl]phosphinic acid], in test [2], the “Activation of Cl− channel current” value is recorded as “did not activate any current on their own”, the Kb stood at 15.5 ± 1.7 µM, the “Slope of Schild Plot” value turned out to be 0.95 and the “nH (Hill Coefficient)” value is on record as 1.8 ± 0.4. Besides, in test [2], the IC50 was 7.7 µM and 7.68 µM; the Mode of antagonism entry was “competitive antagonists”. In addition, in test [2] (100 μM), the “Activation of the receptor by compound alone” value (“Activation of the receptor” for short) is recorded as “do not activate the receptor” and the “Effect on GABA response when co-applied with GABA (1 μM)” value (“Effect on GABA response when co-applied” below) is “the GABA response is blocked or reduced”. In test [2] ([Antagonist] 30 μM), the “nH of GABA curve” value came to 2.7 ± 0.1. Also, the “nH of GABA curve” value in test [2] ([Antagonist] 60 μM) was determined as 2.5 ± 0.4. In addition, the “nH of GABA curve” value in test [2] ([Antagonist] 100 μM) is listed as 3.0 ± 0.1. Moreover, the IC50 in test [4] is 6.8 µM.
Take `CP(=O)(O)/C=C/CN` [CGP44530, [(E)-3-Aminopropen-1-yl]methylphosphinic acid]: in test [7], the IC50 is 0.65 µM. Also, in test [2], the “Activation of Cl− channel current” value was “did not activate any current on their own”, the Kb was 8.6 ± 1.6 µM, the “Slope of Schild Plot” value is 1.01 and the “nH (Hill Coefficient)” value amounted to 2.4 ± 0.5. Also, in test [2], the IC50 is 5.5 µM and 5.53 µM; the Mode of antagonism result is “competitive antagonists”. Besides, in test [2] (100 μM), the “Activation of the receptor” value is reported as “do not activate the receptor” and the “Effect on GABA response when co-applied” value is “the GABA response is blocked or reduced”. In test [2] ([Antagonist] 10 μM), the “nH of GABA curve” value is 2.6 ± 0.2. For the same compound, in test [2] ([Antagonist] 30 μM), the “nH of GABA curve” value amounted to 3.0 ± 0.1. In test [2] ([Antagonist] 100 μM), the “nH of GABA curve” value worked out at 3.7 ± 0.4. For the same compound, the “GABAA receptor affinity, IC50” value in test [4] was “inactive at 100”.
For the compound `NCCCP(=O)(O)CC1CCCCC1` [CGP46381, 3-aminopropyl(cyclohexylmethyl)phosphinic acid], the “Effect as agonist or antagonist at GABAC receptors” value in test [2] is reported as “no effect as either agonists or antagonists”.
On the same count and under the same terms, the same measure for `NC[C@H](O)CP(=O)(O)CC1CCCCC1` [CGP51176, (2S)-3-amino-2-hydroxypropyl(cyclohexylmethyl)phosphinic acid]: “no effect as either agonists or antagonists”; for `C[C@H](NC[C@@H](O)CP(=O)(O)Cc1ccccc1)c1ccc(Cl)c(Cl)c1` [CGP55845A]: “no effect as either agonists or antagonists”.
Regarding `NC/C=C\[PH](=O)O` [CGP70522, [(Z)-3-aminopropen-1-yl]phosphinic acid], in test [2], the “Activation of Cl− channel current” value is reported as “did not activate any current on their own”, the IC50 is more than 300 µM and the Mode of antagonism result was “competitive antagonists”. In test [2] (300 μM), the “Activation of the receptor” value is given as “do not activate the receptor” and the “Effect on GABA response when co-applied” value is “the GABA response is blocked or reduced”. Moreover, in test [4], the IC50 is 6.6 µM.
Consider `CP(=O)(O)/C=C\CN` [CGP70523, [(Z)-3-aminopropen-1-yl]methylphosphinic acid], for which the IC50 in test [7] is 16 µM. In test [2], the “Activation of Cl− channel current” value is “did not activate any current on their own”; the “nH (Hill Coefficient)” value is on record as 1.6 ± 0.1; the IC50 is 38.9 µM and 38 µM; the Mode of antagonism entry is reported as “competitive antagonists”. In test [2] (100 μM), the “Activation of the receptor” value is recorded as “do not activate the receptor” and the “Effect on GABA response when co-applied” value is on record as “the GABA response is blocked or reduced”. Besides, the IC50 in test [4] was 242 µM.
For the compound `NCCCC(=O)O` [GABA, γ-Aminobutyric acid], in test [2], the “Activation of Cl− channel current” value is on record as “activated the Cl^− channel” and the “nH (Hill Coefficient)” value is on record as 2.6 ± 0.2.
For the compound `O=C(O)C1=CCNCC1` [Isoguvacine], the EC50 in test [8] was 99 µM. Moreover, in test [3], the concentration for half-maximal inhibition (IC50) is 1.4 µM.
Consider `NC/C=C/C(=O)O` [TACA, trans-4-aminocrotonic acid], for which the Kd in test [1] is 0.6 µM. Besides, in test [2], the “Activation of Cl− channel current” value was “activated the Cl^− channel”, the “nH (Hill Coefficient)” value turned out to be 2.4 ± 0.2 and the “Maximal dose current as % of the maximal GABA activated current” value is on record as 95%. Also, in test [2] (read-out: EC50 (effective dose that activates 50% of the maximal current)), the EC50 stood at 0.44 ± 0.02 µM. For the same compound, in test [3], the IC50 is 0.14 µM.
